Laboratory results published in ChEMBL document CHEMBL1136860, “Synthesis and 5-lipoxygenase inhibitory activity of new cinnamoyl and caffeoyl clusters” (Bioorg Med Chem Lett, 2009).
pIC50: −log10 of the molar value. The source made the active and inactive calls. The calls are words filed in the database; no cut-off is given here.

What was measured:
Assay type in all cases: cell-based
[1] = target: T1, Polyunsaturated fatty acid 5-lipoxygenase (Homo sapiens) (UniProt P09917); experiment: Inhibition of human 5LOX expressed in HEK293 cells at 1 uM
T1 sequence (whole entry): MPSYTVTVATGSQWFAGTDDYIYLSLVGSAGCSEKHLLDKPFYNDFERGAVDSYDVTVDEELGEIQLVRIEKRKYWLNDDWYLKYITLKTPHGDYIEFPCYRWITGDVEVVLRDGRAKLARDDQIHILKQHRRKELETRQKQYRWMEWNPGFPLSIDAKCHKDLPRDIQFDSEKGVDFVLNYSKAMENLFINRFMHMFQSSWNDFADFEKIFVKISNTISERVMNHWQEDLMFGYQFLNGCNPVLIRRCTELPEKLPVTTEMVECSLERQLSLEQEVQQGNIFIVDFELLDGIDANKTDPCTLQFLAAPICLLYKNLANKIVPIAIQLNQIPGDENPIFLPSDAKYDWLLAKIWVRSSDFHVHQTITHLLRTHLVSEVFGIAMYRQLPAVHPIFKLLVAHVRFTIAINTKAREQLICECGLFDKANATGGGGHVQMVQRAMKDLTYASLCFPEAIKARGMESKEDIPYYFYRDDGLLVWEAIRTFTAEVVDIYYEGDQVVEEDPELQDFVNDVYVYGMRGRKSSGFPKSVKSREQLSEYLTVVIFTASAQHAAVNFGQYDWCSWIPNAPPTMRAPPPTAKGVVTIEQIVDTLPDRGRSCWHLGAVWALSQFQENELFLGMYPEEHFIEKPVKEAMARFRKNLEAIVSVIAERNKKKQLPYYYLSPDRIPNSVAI

[2] = target: T2, Polyunsaturated fatty acid 5-lipoxygenase (Homo sapiens, UniProt P09917); experiment: Inhibition of human 5LOX expressed in HEK293 cells
T2 sequence (P09917 whole entry): T1 sequence (whole entry)

[3] = target: T1, Polyunsaturated fatty acid 5-lipoxygenase (Homo sapiens); experiment: Ratio of IC50 of caffeic acid to IC50 of compound for human 5LOX expressed in HEK293 cells

Activity [1] | inhibition [1] [%] | pIC50 [2] | Ratio IC50 [3] | SMILES
Active |  |  |  | O=C(/C=C/c1ccc(O)c(O)c1)OCc1cn(CC(COCC(Cn2cc(COC(=O)/C=C/c3ccc(O)c(O)c3)nn2)(Cn2cc(COC(=O)/C=C/c3ccc(O)c(O)c3)nn2)Cn2cc(COC(=O)/C=C/c3ccc(O)c(O)c3)nn2)(Cn2cc(COC(=O)/C=C/c3ccc(O)c(O)c3)nn2)Cn2cc(COC(=O)/C=C/c3ccc(O)c(O)c3)nn2)nn1
 | 92 | 6.18 | 10.1 | O=C(/C=C/c1ccc(O)c(O)c1)OCc1cn(CC(Cn2cc(COC(=O)/C=C/c3ccc(O)c(O)c3)nn2)(Cn2cc(COC(=O)/C=C/c3ccc(O)c(O)c3)nn2)Cn2cc(COC(=O)/C=C/c3ccc(O)c(O)c3)nn2)nn1
Active |  |  |  | O=C(/C=C/c1ccc(O)c(O)c1)OCCn1cc(COCC(COCc2cn(CCOC(=O)/C=C/c3ccc(O)c(O)c3)nn2)(COCc2cn(CCOC(=O)/C=C/c3ccc(O)c(O)c3)nn2)COCc2cn(CCOC(=O)/C=C/c3ccc(O)c(O)c3)nn2)nn1
 | 91 | 6.10 | 10.5 | O=C(/C=C/c1ccc(O)c(O)c1)OCc1cn(CC(CO)(Cn2cc(COC(=O)/C=C/c3ccc(O)c(O)c3)nn2)Cn2cc(COC(=O)/C=C/c3ccc(O)c(O)c3)nn2)nn1

Continued, compound first:

SMILES | Activity [1] | inhibition [1] [%] | pIC50 [2] | Ratio IC50 [3]
O=C(/C=C/c1ccc(O)c(O)c1)OCCn1cc(COC(=O)/C=C/c2ccc(O)c(O)c2)nn1 | Active |  | 6.13 | 16.8
O=C(/C=C/c1ccc(O)c(O)c1)OCCn1cc(COC(=O)/C=C/c2ccccc2)nn1 | Active |  | 6.17 | 36.7
O=C(/C=C/c1ccccc1)OCCn1cc(COC(=O)/C=C/c2ccc(O)c(O)c2)nn1 | Active |  |  | 
